Activity calls are given as the source filed them. The rule behind the calls is not given here.

The values that follow come from ChEMBL document CHEMBL3808326, “Design and synthesis of novel hydroxypyridinone derivatives as potential tyrosinase inhibitors” (Bioorg Med Chem Lett, 2016).

Series [1] concerns the target T1, Tyrosinase (Agaricus bisporus, UniProt O42713).
T1 sequence (O42713 whole entry): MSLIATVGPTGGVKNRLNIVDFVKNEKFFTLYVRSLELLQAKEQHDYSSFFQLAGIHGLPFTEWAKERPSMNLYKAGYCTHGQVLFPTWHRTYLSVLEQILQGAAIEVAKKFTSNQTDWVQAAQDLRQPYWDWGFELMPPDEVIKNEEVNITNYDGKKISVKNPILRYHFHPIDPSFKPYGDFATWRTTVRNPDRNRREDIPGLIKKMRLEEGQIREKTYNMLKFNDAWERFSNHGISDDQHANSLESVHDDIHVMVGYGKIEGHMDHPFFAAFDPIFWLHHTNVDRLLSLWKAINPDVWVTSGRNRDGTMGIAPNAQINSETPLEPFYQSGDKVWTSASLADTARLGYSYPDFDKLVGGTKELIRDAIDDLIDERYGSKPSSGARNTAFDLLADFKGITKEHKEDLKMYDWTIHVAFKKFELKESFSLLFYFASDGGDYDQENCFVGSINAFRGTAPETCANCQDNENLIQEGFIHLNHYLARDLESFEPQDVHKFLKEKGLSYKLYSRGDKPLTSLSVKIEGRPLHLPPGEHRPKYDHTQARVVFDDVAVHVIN
Put plainly: Inhibition of monophenolase activity of mushroom tyrosinase using L-tyrosine as substrate incubated for 10 mins by UV-Visible spectrophotometric analysis.

Series [2] in a line: Copper chelating activity in pH 7.4 copper sulfate solution at 2.857 mM after 10 mins by tetramethylmurexide dye based assay relative to control. The class given is physicochemical. The settings on record: pH 7.4, 10 min, 2857 µM.
Series [3] in a line: Copper chelating activity in pH 5 copper sulfate solution at 2.857 mM after 10 mins by tetramethylmurexide dye based assay relative to control. The class given is physicochemical. The settings on record: pH 5, 10 min, 2857 µM.
Series [4] addresses T2, Tyrosinase (Agaricus bisporus) (UniProt O42713).
T2 sequence (whole entry): T1 sequence (O42713 whole entry)
In words: Competitive-uncompetitive-mixed type inhibition of diphenolase activity of mushroom tyrosinase using L-DOPA as substrate incubated for 10 mins by Lineweaver-Burk plot method.

A short description of series [5]: Copper reducing activity in 0.4 mM cupric sulfate solution assessed as cuprous ion formation up to 0.15 mM after 10 mins by bathocuproinedisulfonic acid dye based spectrophotometric analysis. The class given is physicochemical.
Series [6] addresses T1, Tyrosinase. In words: Inhibition of diphenolase activity of mushroom tyrosinase using L-DOPA as substrate incubated for 10 mins by UV-Visible spectrophotometric analysis.
For series [7], the target named is T2, Tyrosinase (Agaricus bisporus). Put plainly: Reversible inhibition of diphenolase activity of mushroom tyrosinase using L-DOPA as substrate at 4.17 to 33.33 uM incubated for 10 mins by UV-Visible spectrophotometric analysis.
In series [8] the target is T1, Tyrosinase. Put plainly: Inhibition of diphenolase activity of mushroom tyrosinase using L-DOPA as substrate assessed as enzyme-substrate-inhibitor complex incubated for 10 mins by Lineweaver-Burk plot method.
Series [9] concerns the target T1, Tyrosinase. In words: Inhibition of diphenolase activity of mushroom tyrosinase using L-DOPA as substrate assessed as enzyme-inhibitor complex incubated for 10 mins by Lineweaver-Burk plot method.

As for `CC[C@H](C)[C@H](NC(=O)OCc1ccccc1)C(=O)OCc1cc(=O)c(O)c[nH]1`, in series [1], the IC50 came to 15.6 µM.
Consider `CC(C)[C@H](NC(=O)OCc1ccccc1)C(=O)OCc1cc(=O)c(O)c[nH]1`, for which, in series [1], the IC50 was determined as 12.5 µM.
In [1], `C[C@H](NC(=O)OCc1ccccc1)C(=O)OCc1cc(=O)c(O)c[nH]1` registered an IC50 of 11.8 µM.
The same measure, in the same setting: under `CC(C)C[C@H](NC(=O)[C@@H](N)Cc1ccccc1)C(=O)NCc1cc(=O)c(O)c[nH]1` stands 6.93 µM.
`O=C(N[C@@H](Cc1ccccc1)C(=O)OCc1cc(=O)c(O)c[nH]1)OCc1ccccc1`: the Activity is given as 88.92% in [2], 97.52% in [3] and “Active” in series [5]. In addition, the IC50 was found to be 1.95 µM in series [1] and 8.97 µM in [6]. For the same molecule, the inhibition result in [4] and in series [7] was “Active” in each case. For the same molecule, the Ki in series [8] amounted to 22.1 µM; in series [9] it was 17.2 µM.
Turning to `N[C@@H](Cc1ccccc1)C(=O)N[C@@H](Cc1ccccc1)C(=O)NCc1cc(=O)c(O)c[nH]1`, the IC50 was determined as 2.79 µM in series [1] and 26.2 µM in [6]. For the same molecule, the inhibition result in series [4] and in [7] was “Active” each time. Moreover, the Ki in series [8] amounted to 79 µM; in [9], 34.4 µM.
In series [1], `CC(C)[C@H](NC(=O)[C@@H](N)Cc1ccccc1)C(=O)NCc1cc(=O)c(O)c[nH]1` registered an IC50 of 14.3 µM.
Same read-out and setting: under `CC(C)C[C@H](NC(=O)OCc1ccccc1)C(=O)OCc1cc(=O)c(O)c[nH]1` stands 28.7 µM.
